According to patent publication US4204039A, “Process for producing deoxynarasin antibiotics” (Eli Lilly and Company, priority 1978, dated 1980):
Counter-ions that a name gives are not always drawn.

Experiments:
Eimeria tenella = assay: chick feeding experiment, Eimeria tenella challenge; type: in vivo, chickens; details: 100 ppm in diet; Na salt
From the text: A feeding experiment in young chickens confirms that the deoxynarasin antibiotics have anticoccidial activity in vivo.
^1 Two cages of four chickens each per treatment.
^2 Maximum possible score = 4.00.

solubility = type: physicochemical
stability in alcohols = type: physicochemical; details: free acid; e.g. methanol, room temperature, four hours
Experimental: For example, 20-deoxynarasin acid (435.1 mg) was dissolved in methanol (40 ml) and allowed to stand at room temperature for four hours. The solution was then evaporated to dryness under vacuum; the residue was redissolved in dioxane and lyophilized to give 417.8 mg of 20-deoxy-epi-17-narasin acid.

SMILES	mortality (in words) (Eimeria tenella)	number of lesions (in words) (Eimeria tenella)	weight gains (in words) (Eimeria tenella)	solubility (solubility; methanol, ethanol, dimethylformamide, dimethyl sulfoxide, ethyl acetate, chloroform, acetone and benzene)	solubility (solubility; nonpolar organic solvents such as hexane)	solubility (solubility; water)	stability in alcohols (stability in alcohols)
CCC(C(=O)O)C1OC(C(C)C(O)C(C)C(=O)C(CC)C2OC3(C=CCC4(CCC(C)(C5CCC(O)(CC)C(C)O5)O4)O3)C(C)CC2C)C(C)CC1C (stereo not shown) [20-deoxynarasin (Na salt), 20-deoxynarasin]	prevented mortality	decreased the number of lesions	improved weight gains				
CCC(C(=O)O)C1OC(C(C)C(O)C(C)C(=O)C(CC)C2OC3(C=CCC4(CCC(C)(C5CCC(O)(CC)C(C)O5)O4)O3)C(C)CC2C)C(C)CC1C (stereo not shown) [20-deoxynarasin]				soluble	only slightly soluble	insoluble	unstable in alcohols, converting to 20-deoxy-epi-17-narasin free acid
